# Experimental data: US20170166555A1, “FUNCTIONALISED AND SUBSTITUTED INDOLES AS ANTI-CANCER AGENTS” (Novogen Limited, priority 2013, published 2017)
# Tests used:
# Tm5NM1 = Tm5NM1 (Homo sapiens, UniProt P06753); experiment: Pyrene-based actin filament depolymerization assay; format: biochemical; details: for Rate of depolymerization of Tm5NM1-containing actin filaments in the presence of compound (in words): Tm5NM1 pre-incubated with 50 μM compound, compared to F-actin alone
# Experimental: FIG. 4: Impact of compounds 4015 and 4093 on Tm5NM1-regulated actin-filament depolymerization kinetics. (A, C and E) Depolymerization time course of 6 μM actin filaments (35% pyrene labelled) diluted 12-fold into F-actin buffer (100 mM NaCl, 10 mM Tris-HCl pH 7.0, 2 mM MgCl2, 1 mM EGTA, 0.2 mM CaCl2, 0.2 mM ATP, 0.5 mM DTT, 0.01% (v/v) NaN3) in the presence or absence of saturating amounts (10 μM) of Tm5NM1. Final concentration of F-actin and Tm5NM1 was 0.5 μM and 0.83 μM respectively. Tm5NM1 was pre-incubated with 50 μM 4015, 4093 or 1% (v/v) DMSO prior to mixing with F-actin. Depolymerization data is normalized to the initial fluorescence value. (B, D and F) Initial rates (V0) of depolymerization for F-actin alone or Tm5NM1/F-actin, in the presence of compound 4015 or 4093. Initial rates of depolymerization were determined from the first 3600 s, fitted to a linear regression model. Data represents mean ±SEM, averaged from n>8 replicates. **** p<0.0001, ** p<0.005.
# A brief overview and rationale of the assay is as follows: to promote depolymerization, pyrene-labelled actin filaments were diluted below the critical concentration of the pointed end (0.5 μM, as defined by Pollard et al., 1986). A decline in fluorescence was measured over time as actin monomers dissociate. […] Therefore, any compound, which interacts with, and impacts Tm5NM1 function, would nullify the protective effect of Tm5NM1 on actin depolymerization.
# For all assays the depolymerization of F-actin alone and F-actin-coated with the human homologue of Tm5NM1 was used as a comparative control. Briefly, Tm5NM1 was pre-incubated with F-actin for 20 minutes prior to diluting the filaments, to allow for proper assembly of the Tm5NM1 polymer.
# The depolymerization of F-actin alone and F-actin-coated with Tm5NM1 was then measured in the presence of test compound and initial rates of depolymerization were compared. Tm5NM1 was pre-incubated with 50 μM 4015 and 4093 prior to being added to the actin filaments as previously described. In the presence of compound 4015, the rate of depolymerization of Tm5NM1-containing actin filaments was increased.
# [1] = system: DU145 prostate cancer cells; experiment: Anti-proliferative assay, cell-titre luminescent reagent, 72 h (GVK-BIO); format: cell-based; details: Homo sapiens, DU-145, 72 h, 30, 3, 0.3 and 0.03 μM, linear regression (Tables 2-4)
# In short: (§1)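 Luminescent cell-titre viability was read 30 min after reagent addition, following 72 h compound exposure of cells pre-cultured 24 h at 37 °C, 5% CO2. Dose sets were 30–0.03 μM (4 points) or 30–0.1 μM (6 points), giving IC50 by linear regression or EC50 by nonlinear variable-slope fit vs vehicle.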
# [2] = system: SK-N-SH neuroblastoma cells; experiment: as above; format: cell-based; details: Homo sapiens, SK-N-SH, 30, 3, 0.3 and 0.03 μM, linear regression (Tables 2-4)
# In short: as §1
# [3] = system: CaCo2 colorectal cancer cells; experiment: as above; format: cell-based; details: Homo sapiens, Caco-2, 72 h, 30, 3, 0.3 and 0.03 μM, linear regression (Tables 2-4)
# In short: as §1
# SK-Mel-28 melanoma cells = experiment: as above; format: cell-based; details: Homo sapiens, SK-MEL-28, 72 h, 30, 3, 0.3 and 0.03 μM, linear regression (Tables 2-4)
# In short: as §1
# [4] = system: MDA-MB-231 triple negative breast cancer cells; experiment: as above; format: cell-based; details: Homo sapiens, MDA-MB-231, 72 h, 30, 3, 0.3 and 0.03 μM, linear regression (Tables 2-4)
# In short: as §1
# [5] = system: PC3 prostate cancer cells; experiment: as above; format: cell-based; details: 30, 3, 0.3 and 0.03 μM, linear regression (Tables 2-4)
# In short: as §1
# [6] = system: A549 non-small cell lung carcinoma cells; experiment: as above; format: cell-based; details: Homo sapiens, A549, 72 h, 30, 3, 0.3 and 0.03 μM, linear regression (Tables 2-4), read-out: IC50/μM Lung (NSLC) A549
# In short: as §1
# Chain of Tm5NM1 (P06753 1-248 isoform P06753-2): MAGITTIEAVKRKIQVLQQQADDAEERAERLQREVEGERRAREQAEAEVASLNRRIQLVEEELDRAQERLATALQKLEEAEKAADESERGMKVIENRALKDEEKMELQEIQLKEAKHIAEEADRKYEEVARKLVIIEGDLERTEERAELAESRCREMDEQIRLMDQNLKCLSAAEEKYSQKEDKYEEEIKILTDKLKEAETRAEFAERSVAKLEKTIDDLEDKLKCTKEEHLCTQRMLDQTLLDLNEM
SMILES,Rate of depolymerization of Tm5NM1-containing actin filaments in the presence of compound (in words) (Tm5NM1),IC50 [1],IC50 [2],IC50 [3],IC50 (SK-Mel-28 melanoma cells),IC50 [4],IC50 [5],IC50 [6],"Initial rate (V0) of depolymerization, F-actin alone (Tm5NM1; 50 μM compound, FIG. 4E and F)","Initial rate (V0) of depolymerization, Tm5NM1-containing actin (Tm5NM1; 50 μM compound, FIG. 4E and F)"
"Cc1c(C)n(CCCN(C)C)c2ccc(CN3CCN(CCc4ccccc4)CC3)cc12 [Compound 4015, 3-(2,3-dimethyl-5-((4-phenethylpiperazin-1-yl)methyl)-1H-indol-1-yl)-N,N-dimethylpropan-1-amine]",increased,3.7 µM,4.6 µM,2.9 µM,3.9 µM,3 µM,2.9 µM,1.8 µM,–,–
"Cc1c(C)n(CCCN(C)C)c2ccc(Oc3ccc(C(=O)Nc4ccc(F)cc4)cc3)cc12 [Compound 4093, 4-((1-(3-(dimethylamino)propyl)-2,3-dimethyl-1H-indol-5-yl)oxy)-N-(4-fluorophenyl)benzamide]",no significant difference,1.7 µM,2.5 µM,1.8 µM,0.9 µM,2.1 µM,1.2 µM,3 µM,−0.30±0.029×10^−4,−0.26±0.028×10^−4
